Structures are written as SMILES. Numbered stars: 1 amine (or outer) side, 2 acyl side, 3 side chain; on linkers, the order of the positions; unused ones are H or OH. Bridge positions count the residues as written; N and C are the ends. Square brackets hold non-standard residues; d marks the D form. Peptide text beside a SMILES is read from it. * marks the point of attachment. ξ: configuration not given here. X18 = O=C(O)COCCc1ccc(-c2ccc(C[C@H](N[*:1])C(=O)[*:2])cc2)cc1; Tyr(3-NO2) = N[C@@H](Cc1ccc(O)c([N+](=O)[O-])c1)C(=O)O; Phe(4-COOH) = N[C@@H](Cc1ccc(C(=O)O)cc1)C(=O)O; Phe(3,4-F2) = N[C@@H](Cc1ccc(F)c(F)c1)C(=O)O; Bip = N[C@@H](Cc1ccc(-c2ccccc2)cc1)C(=O)O; Gly(cPent) = N[C@H](C(=O)O)C1CCCC1; aIle = CC[C@@H](C)[C@H](N)C(=O)O; 3Pal = N[C@@H](Cc1cccnc1)C(=O)O; 4Pal = N[C@@H](Cc1ccncc1)C(=O)O; Cha = N[C@@H](CC1CCCCC1)C(=O)O; Pip = O=C(O)[C@@H]1CCCCN1; Carboxymethyl = O=C(O)C*; NMeA = CN[C@@H](C)C(=O)O; Orn = NCCC[C@H](N)C(=O)O; Dab = NCC[C@H](N)C(=O)O; ξV = CC(C)C(N)C(=O)O

In this assay the target is T1, PE-labeled human PD-L1-Ig binding to Jurkat cell line over-expressing human PD-1 (Jurkat-PD-1) (Homo sapiens, UniProt Q15116).
T1 construct: expressed in transfected cells; host or cells: Jurkat
T1 sequence (Q15116 25-288): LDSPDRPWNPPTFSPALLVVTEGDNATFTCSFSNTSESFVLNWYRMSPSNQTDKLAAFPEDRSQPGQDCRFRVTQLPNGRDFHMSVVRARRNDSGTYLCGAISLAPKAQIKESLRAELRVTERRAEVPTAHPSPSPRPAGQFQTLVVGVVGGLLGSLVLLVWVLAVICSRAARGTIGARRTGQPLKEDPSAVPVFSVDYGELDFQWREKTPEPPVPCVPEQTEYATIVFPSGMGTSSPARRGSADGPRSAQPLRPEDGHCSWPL
The assay is described as follows: Jurkat-PD-1 Cell Binding High-Content Screening Assay (CBA): Method 1. Conditions: Jurkat-hPD-1 cells, PE-labeled PD-L1-Ig 20 nM final; read-out: Jurkat HPDL1 PD1 IC50 (uM) (Method 1).
A word on the IC50: it is the concentration at which inhibition is half-maximal. Turning to `CC[C@@H](C)[C@@H]1NC(=O)[C@H](Cc2ccc(-c3ccccc3)cc2)NC(=O)[C@H](C2CCCC2)NC(=O)[C@H](Cc2c[nH]c3ccccc23)NC(=O)[C@H](CC(=O)O)NC(=O)[C@H](Cc2ccc(C(=O)O)cc2)NC(=O)[C@H](Cc2ccc(OCC(=O)O)cc2)NC(=O)CSC[C@@H](C(=O)N[C@@H](CCCCN)C(N)=O)NC(=O)[C@H](CO)NC(=O)C(C(C)C)NC(=O)[C@H](CC(C)C)NC(=O)[C@H](CC(N)=O)NC(=O)[C@@H](CC(C)C)NC(=O)[C@H](C)N(C)C1=O` (stereo partly drawn) [Compound 2103] ({CH2CO}-Y(Carboxymethyl)[Phe(4-COOH)]DW[Gly(cPent)][Bip][aIle][NMeA][dL]NL[ξV]SCK-NH2; thioether N-14), the IC50 was 0.04 µM. On to `CC(C)C[C@@H]1NC(=O)[C@H](CCCN)NC(=O)[C@@H](CC(C)C)NC(=O)[C@H](C)N(C)C(=O)[C@H](CCCNC(=N)N)NC(=O)[C@H](Cc2ccc(-c3ccccc3)cc2)NC(=O)[C@H](C(C)C)NC(=O)[C@H](Cc2c[nH]c3ccccc23)NC(=O)[C@H](CC(=O)O)NC(=O)[C@H](Cc2ccc(O)cc2)NC(=O)[C@H](Cc2ccccc2)NC(=O)CSC[C@@H](C(=O)N[C@@H](C)C(N)=O)NC(=O)[C@H]([C@@H](C)O)NC(=O)[C@H](C(C)C)NC1=O` [Compound 1119] ({CH2CO}-FYDWV[Bip]R[NMeA][dL][Orn]LVTCA-NH2; thioether N-14), for which the IC50 was found to be 0.03 µM. The value for `CC(C)C[C@@H]1NC(=O)[C@H](CCN)NC(=O)[C@@H](CC(C)C)NC(=O)[C@H](C)N(C)C(=O)[C@H](CCCNC(=N)N)NC(=O)[C@H](Cc2ccc(-c3ccccc3)cc2)NC(=O)[C@H](C(C)C)NC(=O)[C@H](Cc2c[nH]c3ccccc23)NC(=O)[C@H](CC(=O)O)NC(=O)[C@H](Cc2ccc(O)c([N+](=O)[O-])c2)NC(=O)[C@H](Cc2cccnc2)NC(=O)CSC[C@@H](C(=O)N[C@@H](C)C(N)=O)NC(=O)[C@H]([C@@H](C)O)NC(=O)[C@H](C(C)C)NC1=O` [Compound 1155] ({CH2CO}-[3Pal][Tyr(3-NO2)]DWV[Bip]R[NMeA][dL][Dab]LVTCA-NH2; thioether N-14) was 0.02 µM; that for `CC(C)C[C@H]1NC(=O)[C@@H]2CCCCN2C(=O)[C@H](Cc2c[nH]cn2)NC(=O)[C@H](Cc2ccc(-c3ccccc3)cc2)NC(=O)[C@H](C(C)C)NC(=O)[C@H](Cc2c[nH]c3ccccc23)NC(=O)[C@H](CC(=O)O)NC(=O)[C@H](Cc2ccc(C(=O)O)cc2)NC(=O)[C@H](Cc2ccncc2)NC(=O)CSC[C@@H](C(=O)N[C@H](C)C(N)=O)NC(=O)[C@H](CO)NC(=O)[C@H](C(C)C)NC(=O)[C@H](CC2CCCCC2)NC(=O)[C@H](CCN)NC1=O` [Compound 2125] ({CH2CO}-[4Pal][Phe(4-COOH)]DWV[Bip]H[Pip][dL][Dab][Cha]VSC[dA]-NH2; thioether N-14) was 0.04 µM; that for `CC(C)C[C@@H]1NC(=O)[C@H](CCN)NC(=O)[C@@H](CC(C)C)NC(=O)[C@H](C)N(C)C(=O)[C@H](CCCNC(=N)N)NC(=O)[C@H](Cc2ccc(-c3ccc(CCOCC(=O)O)cc3)cc2)NC(=O)[C@H](C(C)C)NC(=O)[C@H](Cc2c[nH]c3ccccc23)NC(=O)[C@H](CC(=O)O)NC(=O)[C@H](Cc2ccc(O)cc2)NC(=O)[C@H](CC(N)=O)NC(=O)CSC[C@@H](C(=O)N[C@@H](C)C(N)=O)NC(=O)[C@H]([C@@H](C)O)NC(=O)[C@H](C(C)C)NC1=O` [Compound 1210] ({CH2CO}-NYDWV[X18]R[NMeA][dL][Dab]LVTCA-NH2; thioether N-14) was 0.88 µM. The value for `CC(C)C[C@@H]1NC(=O)[C@H](CCCNC(=N)N)NC(=O)[C@H](Cc2ccc(F)c(F)c2)NC(=O)[C@H](C)N(C)C(=O)[C@H](CCCNC(=N)N)NC(=O)[C@H](Cc2ccc(-c3ccccc3)cc2)NC(=O)[C@H](C(C)C)NC(=O)[C@H](Cc2c[nH]c3ccccc23)NC(=O)[C@H](CC(=O)O)NC(=O)[C@H](Cc2ccc(O)cc2)NC(=O)[C@H](Cc2ccccc2)NC(=O)CSC[C@@H](C(=O)NCC(N)=O)NC(=O)[C@H](CO)NC(=O)[C@H](C(C)C)NC1=O` [Compound 1015] ({CH2CO}-FYDWV[Bip]R[NMeA][Phe(3,4-F2)]RLVSCG-NH2; thioether N-14) was 0.16 µM.

(Values after patent publication US20240409585A1, “MACROCYCLIC IMMUNOMODULATORS” (priority 2021, published 2024).)
